Measurements published in ChEMBL document CHEMBL1201861, “Genomics of Drug Sensitity in Cancer screening data, Wellcome Trust Sanger Institute”.
pIC50: −log10 of the molar value.

Experiments:
Assay in all cases: cells
COLO-792 = format: functional, cell-based, Homo sapiens; settings: Homo sapiens, COLO-792
Description: SANGER: Inhibition of human COLO-792 cell growth in a cell viability assay.

COR-L23 = format: functional, cell-based, Homo sapiens; settings: Homo sapiens, COR-L23
Description: SANGER: Inhibition of human COR-L23 cell growth in a cell viability assay.

Calu-6 = format: functional, cell-based, Homo sapiens; settings: Homo sapiens, Calu-6
Description: SANGER: Inhibition of human Calu-6 cell growth in a cell viability assay.

DEL = format: functional, cell-based; settings: Homo sapiens
Description: SANGER: Inhibition of human DEL cell growth in a cell viability assay.

DMS-79 = format: functional, cell-based; settings: Homo sapiens
Description: SANGER: Inhibition of human DMS-79 cell growth in a cell viability assay.

ES6 = format: functional, cell-based, Homo sapiens; settings: Homo sapiens, ES6
Description: SANGER: Inhibition of human ES6 cell growth in a cell viability assay.

EW-11 = format: functional, cell-based, Homo sapiens; settings: Homo sapiens, EW-11
Description: SANGER: Inhibition of human EW-11 cell growth in a cell viability assay.

HCC1937 = format: functional, cell-based, Homo sapiens; settings: Homo sapiens, HCC1937
Description: SANGER: Inhibition of human HCC1937 cell growth in a cell viability assay.

HD-MY-Z = format: functional, cell-based, Homo sapiens; settings: Homo sapiens, HD-MY-Z
Description: SANGER: Inhibition of human HD-MY-Z cell growth in a cell viability assay.

HEL = format: functional, cell-based, Homo sapiens; settings: Homo sapiens, HEL
Description: SANGER: Inhibition of human HEL cell growth in a cell viability assay.

HMV-2 cell line = format: functional, cell-based, Homo sapiens; settings: Homo sapiens, HMV-2
Description: SANGER: Inhibition of human HMV-II cell growth in a cell viability assay.

Hs-578T = format: functional, cell-based, Homo sapiens; settings: Homo sapiens, Hs-578T
Description: SANGER: Inhibition of human Hs-578-T cell growth in a cell viability assay.

HuO-3N1 = format: functional, cell-based, Homo sapiens; settings: Homo sapiens, HuO-3N1
Description: SANGER: Inhibition of human HuO-3N1 cell growth in a cell viability assay.

K562 = format: functional, cell-based; settings: Homo sapiens
Description: SANGER: Inhibition of human K-562 cell growth in a cell viability assay.

KARPAS-299 = format: functional, cell-based; settings: Homo sapiens
Description: SANGER: Inhibition of human KARPAS-299 cell growth in a cell viability assay.

KP-N-YS = format: functional, cell-based; settings: Homo sapiens
Description: SANGER: Inhibition of human KP-N-YS cell growth in a cell viability assay.

LB2241-RCC = format: functional, cell-based, Homo sapiens; settings: Homo sapiens, LB2241-RCC
Description: SANGER: Inhibition of human LB2241-RCC cell growth in a cell viability assay.

LOX IMVI = format: functional, cell-based; settings: Homo sapiens
Description: SANGER: Inhibition of human LOXIMVI cell growth in a cell viability assay.

LU-99A = format: functional, cell-based, Homo sapiens; settings: Homo sapiens, LU-99A
Description: SANGER: Inhibition of human LU-99A cell growth in a cell viability assay.

LXF-289 cell line = format: functional, cell-based, Homo sapiens; settings: Homo sapiens, LXF-289
Description: SANGER: Inhibition of human LXF-289 cell growth in a cell viability assay.

MCF7 = format: functional, cell-based, Homo sapiens; settings: Homo sapiens, MCF7
Description: SANGER: Inhibition of human MCF7 cell growth in a cell viability assay.

MG-63 = format: functional, cell-based, Homo sapiens; settings: Homo sapiens, MG-63
Description: SANGER: Inhibition of human MG-63 cell growth in a cell viability assay.

ML-2 = format: functional, cell-based; settings: Homo sapiens
Description: SANGER: Inhibition of human ML-2 cell growth in a cell viability assay.

MMAC-SF = format: functional, cell-based, Homo sapiens; settings: Homo sapiens, MMAC-SF
Description: SANGER: Inhibition of human MMAC-SF cell growth in a cell viability assay.

NCI-H1155 = format: functional, cell-based; settings: Homo sapiens
Description: SANGER: Inhibition of human NCI-H1155 cell growth in a cell viability assay.

NCI-H1355 = format: functional, cell-based, Homo sapiens; settings: Homo sapiens, NCI-H1355
Description: SANGER: Inhibition of human NCI-H1355 cell growth in a cell viability assay.

NCI-H1650 = format: functional, cell-based, Homo sapiens; settings: Homo sapiens, NCI-H1650
Description: SANGER: Inhibition of human NCI-H1650 cell growth in a cell viability assay.

NCI-H28 = format: functional, cell-based, Homo sapiens; settings: Homo sapiens, NCI-H28
Description: SANGER: Inhibition of human NCI-H28 cell growth in a cell viability assay.

OCUB-M = format: functional, cell-based, Homo sapiens; settings: Homo sapiens, OCUB-M
Description: SANGER: Inhibition of human OCUB-M cell growth in a cell viability assay.

OE19 = format: functional, cell-based, Homo sapiens; settings: Homo sapiens, OE19
Description: SANGER: Inhibition of human OE19 cell growth in a cell viability assay.

OVCAR-5 = format: functional, cell-based, Homo sapiens; settings: Homo sapiens, OVCAR-5
Description: SANGER: Inhibition of human OVCAR-5 cell growth in a cell viability assay.

PC-14 = format: functional, cell-based, Homo sapiens; settings: Homo sapiens, PC-14
Description: SANGER: Inhibition of human PC-14 cell growth in a cell viability assay.

PC-3 = format: functional, cell-based, Homo sapiens; settings: Homo sapiens, PC-3
Description: SANGER: Inhibition of human PC-3 cell growth in a cell viability assay.

RD = format: functional, cell-based, Homo sapiens; settings: Homo sapiens, RD
Description: SANGER: Inhibition of human RD cell growth in a cell viability assay.

RXF 393 = format: functional, cell-based; settings: Homo sapiens
Description: SANGER: Inhibition of human RXF393 cell growth in a cell viability assay.

S-117 = format: functional, cell-based, Homo sapiens; settings: Homo sapiens, S-117
Description: SANGER: Inhibition of human S-117 cell growth in a cell viability assay.

SCC-9 = format: functional, cell-based, Homo sapiens; settings: Homo sapiens, SCC-9
Description: SANGER: Inhibition of human SCC-9 cell growth in a cell viability assay.

SNU-C2B = format: functional, cell-based, Homo sapiens; settings: Homo sapiens, SNU-C2B
Description: SANGER: Inhibition of human SNU-C2B cell growth in a cell viability assay.

SW1463 = format: functional, cell-based, Homo sapiens; settings: Homo sapiens, SW1463
Description: SANGER: Inhibition of human SW1463 cell growth in a cell viability assay.

SW48 = format: functional, cell-based, Homo sapiens; settings: Homo sapiens, SW48
Description: SANGER: Inhibition of human SW48 cell growth in a cell viability assay.

SW780 = format: functional, cell-based, Homo sapiens; settings: Homo sapiens, SW780
Description: SANGER: Inhibition of human SW780 cell growth in a cell viability assay.

TE-1 = format: functional, cell-based, Homo sapiens; settings: Homo sapiens, TE-1
Description: SANGER: Inhibition of human TE-1 cell growth in a cell viability assay.

647-V = format: functional, cell-based, Homo sapiens; settings: Homo sapiens, 647-V
Description: SANGER: Inhibition of human 647-V cell growth in a cell viability assay.

697 = format: functional, cell-based; settings: Homo sapiens
Description: SANGER: Inhibition of human 697 cell growth in a cell viability assay.

A2058 = format: functional, cell-based; settings: Homo sapiens
Description: SANGER: Inhibition of human A2058 cell growth in a cell viability assay.

A4-Fuk = format: functional, cell-based; settings: Homo sapiens
Description: SANGER: Inhibition of human A4-Fuk cell growth in a cell viability assay.

BHY = format: functional, cell-based, Homo sapiens; settings: Homo sapiens, BHY
Description: SANGER: Inhibition of human BHY cell growth in a cell viability assay.

Becker = format: functional, cell-based, Homo sapiens; settings: Homo sapiens, Becker
Description: SANGER: Inhibition of human Becker cell growth in a cell viability assay.

CAL-27 = format: functional, cell-based, Homo sapiens; settings: Homo sapiens, CAL-27
Description: SANGER: Inhibition of human CAL-27 cell growth in a cell viability assay.

UACC-62 = format: functional, cell-based, Homo sapiens; settings: Homo sapiens, UACC-62
Description: SANGER: Inhibition of human UACC-62 cell growth in a cell viability assay.

COLO-668 = format: functional, cell-based, Homo sapiens; settings: Homo sapiens, COLO-668
Description: SANGER: Inhibition of human COLO-668 cell growth in a cell viability assay.

COLO-678 = format: functional, cell-based, Homo sapiens; settings: Homo sapiens, COLO-678
Description: SANGER: Inhibition of human COLO-678 cell growth in a cell viability assay.

## O=C(NOCC1CC1)c1ccc(F)c(F)c1Nc1ccc(I)cc1Cl [CI-1040]
COLO-792
  pIC50: 5.55
COR-L23
  pIC50: 5.14
Calu-6
  pIC50: 5.17
DEL
  pIC50: < 5.00
DMS-79
  pIC50: < 5.00
ES6
  pIC50: < 5.00
EW-11
  pIC50: < 5.00
HCC1937
  pIC50: 5.03
HD-MY-Z
  pIC50: 5.80
HEL
  pIC50: < 5.00
HMV-2 cell line
  pIC50: 6.19
Hs-578T
  pIC50: 5.26
HuO-3N1
  pIC50: < 5.00
K562
  pIC50: 5.05
KARPAS-299
  pIC50: < 5.00
KP-N-YS
  pIC50: < 5.00
LB2241-RCC
  pIC50: 5.54
LOX IMVI
  pIC50: 5.72
LU-99A
  pIC50: 5.25
LXF-289 cell line
  pIC50: < 5.00
MCF7
  pIC50: < 5.00
MG-63
  pIC50: < 5.00
ML-2
  pIC50: 5.82
MMAC-SF
  pIC50: 6.96
NCI-H1155
  pIC50: 5.27
NCI-H1355
  pIC50: 5.12
NCI-H1650
  pIC50: < 5.00
NCI-H28
  pIC50: < 5.00
OCUB-M
  pIC50: < 5.00
OE19
  pIC50: < 5.00
OVCAR-5
  pIC50: 5.75
PC-14
  pIC50: < 5.00
PC-3
  pIC50: < 5.00
RD
  pIC50: 5.61
RXF 393
  pIC50: 5.70
S-117
  pIC50: < 5.00
SCC-9
  pIC50: < 5.00
SNU-C2B
  pIC50: < 5.00
SW1463
  pIC50: 5.87
SW48
  pIC50: 5.16
SW780
  pIC50: 5.50
TE-1
  pIC50: < 5.00
647-V
  pIC50: < 5.00
697
  pIC50: 5.43
A2058
  pIC50: 5.66
A4-Fuk
  pIC50: 5.80
BHY
  pIC50: < 5.00
Becker
  pIC50: < 5.00
CAL-27
  pIC50: 5.62
UACC-62
  pIC50: < 5.00
COLO-668
  pIC50: < 5.00
COLO-678
  pIC50: 5.11
